Earlier results as cited in patent publication US20050266098A1, “Composition for treatment of a hydrofluoric acid burn” (priority 2004, published 2005).

Experiments:
[1] = tested on: hydrofluoric acid injury; details: soaks as source of calcium ions
[2] = 18° C.

Structure (SMILES): CC(=O)[O-].CC(=O)[O-].[Ca+2] [Calcium acetate]
- epidermal response resulting from the treatment [1]: negative epidermal response

Structure (SMILES): CC(=O)CCC(=O)O [Levulinic acid]
- pKa [2]: 4.64
- pH ([2]; 98% aqueous solution): 6.2
